Reference: the supplement of paper PMC11451515

What was measured:
Conditions in all cases: 48 h
NOMO1 [1] = experiment: cell viability relative to DMSO control; higher = less cytotoxic
Method in brief: (§1)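 Before seeding, each leukemia line was adapted for at least four passages in each medium. NOMO1 or SEM cells (500 cells/well) and P12-Ichikawa cells (1000 cells/well) went into 1536-well plates at 5 μl, then received library compounds in DMSO by pin dosing across 11 threefold concentrations, 47 μM to 0.79 nM. Readout was CellTiter-Glo One luminescence after 48 h at 37°C, and viability is given as a per-plate percentage of DMSO wells, with cell-free wells as background.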

P12-Ichikawa [2] = experiment: as above
Method in brief: as §1

SEM cells [3] = experiment: as above
Method in brief: as §1

NOMO1 [4] = experiment: AUC of viability dose-response curve (% viability x log10 dose units); higher = less sensitive
Method in brief: (§2)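 Leukemia cells adapted to each medium were seeded in 1536-well plates (500 or 1000 cells/well). They were dosed with library compounds in DMSO at 11 threefold doses, 47 μM to 0.79 nM, for 48 h at 37°C. CellTiter-Glo One luminescence was normalised per plate to DMSO and cell-free wells. Area under the curve was integrated by trapezoidal rule over log10 doses on a four-parameter log-logistic fit; curves exceeding full viability were scaled and curves failing quality control removed.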

P12-Ichikawa [5] = experiment: as above
Method in brief: as §2

SEM cells [6] = experiment: as above
Method in brief: as §2

CC1(C)O[C@@H]2C[C@H]3[C@@H]4CCC5=CC(=O)C=C[C@]5(C)[C@@]4(F)[C@@H](O)C[C@]3(C)[C@]2(C(=O)CO)O1
cell viability [%]
Conditions	NOMO1 [1]	P12-Ichikawa [2]	SEM cells [3]
HPLM + 10% dialyzed FBS, 0.000781 µM	110	101	74.9
HPLM + 10% dialyzed FBS, 0.00234 µM	119	105	83.6
HPLM + 10% dialyzed FBS, 0.00702 µM	112	104	109
HPLM + 10% dialyzed FBS, 0.0211 µM	111	100	50.6
HPLM + 10% dialyzed FBS, 0.0632 µM	117	86.2	91.2
HPLM + 10% dialyzed FBS, 0.19 µM	108	76.7	83.5
HPLM + 10% dialyzed FBS, 0.569 µM	90.6	55.6	6.87
HPLM + 10% dialyzed FBS, 1.71 µM	105	63.2	30.7
HPLM + 10% dialyzed FBS, 5.12 µM	86.3	39.4	14.9
HPLM + 10% dialyzed FBS, 15.4 µM	48.4	18.5	14.2
HPLM + 10% dialyzed FBS, 46.1 µM	25.8	8.39	26.3
RPMI 5 mM glucose + 10% FBS, 0.000781 µM	98.3	111	76.9
RPMI 5 mM glucose + 10% FBS, 0.00234 µM	112	115	97
RPMI 5 mM glucose + 10% FBS, 0.00702 µM	96.1	108	103
RPMI 5 mM glucose + 10% FBS, 0.0211 µM	111	115	61.7
RPMI 5 mM glucose + 10% FBS, 0.0632 µM	115	76.5	78.3
RPMI 5 mM glucose + 10% FBS, 0.19 µM	121	70.2	79.3
RPMI 5 mM glucose + 10% FBS, 0.569 µM	117	55.3	7.13
RPMI 5 mM glucose + 10% FBS, 1.71 µM	109	55.9	22.6
RPMI 5 mM glucose + 10% FBS, 5.12 µM	97.7	40	45.9
RPMI 5 mM glucose + 10% FBS, 15.4 µM	33.2	17.9	17.7
RPMI 5 mM glucose + 10% FBS, 46.1 µM	18.1	7.85	30.4
RPMI 5 mM glucose + 10% dialyzed FBS, 0.000781 µM	106	99.5	73.1
RPMI 5 mM glucose + 10% dialyzed FBS, 0.00234 µM	112	108	82.4
RPMI 5 mM glucose + 10% dialyzed FBS, 0.00702 µM	111	100	109
RPMI 5 mM glucose + 10% dialyzed FBS, 0.0211 µM	127	93.2	96.4
RPMI 5 mM glucose + 10% dialyzed FBS, 0.0632 µM	122	77.6	101
RPMI 5 mM glucose + 10% dialyzed FBS, 0.19 µM	117	57.9	75.7
RPMI 5 mM glucose + 10% dialyzed FBS, 0.569 µM	113	47.4	7.45
RPMI 5 mM glucose + 10% dialyzed FBS, 1.71 µM	110	52.6	20.3
RPMI 5 mM glucose + 10% dialyzed FBS, 5.12 µM	99.8	34	47.6
RPMI 5 mM glucose + 10% dialyzed FBS, 15.4 µM	105	30.1	11.4
RPMI 5 mM glucose + 10% dialyzed FBS, 46.1 µM	32.2	9.61	19.8

AUC of viability dose-response curve
Conditions	NOMO1 [4]	P12-Ichikawa [5]	SEM cells [6]
HPLM + 10% dialyzed FBS	411	315	255
RPMI 5 mM glucose + 10% FBS	418	288	270
RPMI 5 mM glucose + 10% dialyzed FBS	456	288	280
